Experiments:
human PDE4D isozyme = human PDE4D isozyme (Homo sapiens, UniProt Q08499); test: IC50 for human PDE4D isozyme (Table 4); type: biochemical; settings: read-out: IC50 for human PDE4D isozyme, hPDE4D
Method: (§1) In-vitro assay for PDE4 enzymes. The in-vitro activity of PDE4 enzymes and the in-vitro potency of therapeutic agents described in the present invention was measured using a real-time, enzyme-coupled spectrophotometric assay. By using three different coupling enzymes, the product of the PDE4 reaction is coupled to the oxidation of the reduced form β-nicotinamide adenine dinucleotide (NADH), which dissipation can be monitored spectrophotmetrically at […]. Assay description. Buffer A containing 50 mM Tris, pH 8.0, 16 mM MgCl2 and 80 mM KCl is prepared and stored at room temperature. Buffer B containing 50 mM Tris, pH 8.0 is prepared and stored at toom temperature. Stock solutions of the following reagents are prepared in Buffer B and stored at −20° C.: Adenosine-5′-triphosphate (ATP), cyclic adenosine-5′-monophosphate (cAMP), phosphoenolpyruvate (PEP) and NADH. An assay mix is prepared by mixing Buffer A, […] (TCEP), ATP, PEP, NADH, myokinase (MK), pyruvate kinase (PK), lactate dehydroganese (LDH) and PDE4 to a final volume of 20 mL, which is enough for a single 96-well assay plate. Assay mix (180 μL) and test article (10 μL) in 1:1 DMSO/H2O mixture is pre-incubated at room temperature for 10 min. The enzymatic reaction is initiated by addition of cAMP (10 μL). Final concentration of all components in the assay (200 μL/well) are as follows: 10 mM MgCl2, 50 mM KCl, 5 mM TCEP, 2.5% DMSO, 0.4 mM NADH, 1 mM PEP, 0.04 mM ATP, 5 units MK, 1 unit PK, 1 unit LDH and appropriate amount of PDE4. Reaction progress curves are monitored in a plate reader capable of measuring light absorbance at 340 nm. A decrease in light absorbance at 340 nm is due to oxidation of NADH. Positive controls containing no test article and negative controls containing no test article and no cAMP are included on every assay plate. Reaction rates are determined from the slopes of the linear portions of the progress curves. All data is percent normalized with respect to controls and presented as percent inhibition.

human PDE4B isozyme = human PDE4B isozyme (Homo sapiens, UniProt Q07343); test: IC50 for human PDE4B isozyme (Table 5); type: biochemical; settings: read-out: IC50 for human PDE4B isozyme, hPDE4B
Method: as §1

human PDE4B isozyme, sequence (Q07343 whole entry): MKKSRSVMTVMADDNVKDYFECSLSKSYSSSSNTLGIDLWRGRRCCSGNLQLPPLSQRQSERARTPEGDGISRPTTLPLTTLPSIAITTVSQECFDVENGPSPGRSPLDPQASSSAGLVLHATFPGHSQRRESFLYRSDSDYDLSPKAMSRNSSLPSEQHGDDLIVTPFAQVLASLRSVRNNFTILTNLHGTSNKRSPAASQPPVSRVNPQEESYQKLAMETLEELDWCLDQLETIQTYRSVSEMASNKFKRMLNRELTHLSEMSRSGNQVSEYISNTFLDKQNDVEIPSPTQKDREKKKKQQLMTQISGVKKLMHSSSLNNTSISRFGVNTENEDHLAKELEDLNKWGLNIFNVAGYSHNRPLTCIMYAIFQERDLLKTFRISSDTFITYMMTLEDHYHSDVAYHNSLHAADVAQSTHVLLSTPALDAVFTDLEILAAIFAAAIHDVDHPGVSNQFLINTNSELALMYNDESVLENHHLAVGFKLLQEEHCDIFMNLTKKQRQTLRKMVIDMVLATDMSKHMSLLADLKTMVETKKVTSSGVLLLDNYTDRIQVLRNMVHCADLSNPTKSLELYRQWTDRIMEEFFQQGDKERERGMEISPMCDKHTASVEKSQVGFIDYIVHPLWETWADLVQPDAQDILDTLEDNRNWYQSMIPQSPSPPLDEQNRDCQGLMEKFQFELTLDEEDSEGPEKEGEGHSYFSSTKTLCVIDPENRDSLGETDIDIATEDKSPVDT
human PDE4D isozyme, sequence (Q08499 whole entry): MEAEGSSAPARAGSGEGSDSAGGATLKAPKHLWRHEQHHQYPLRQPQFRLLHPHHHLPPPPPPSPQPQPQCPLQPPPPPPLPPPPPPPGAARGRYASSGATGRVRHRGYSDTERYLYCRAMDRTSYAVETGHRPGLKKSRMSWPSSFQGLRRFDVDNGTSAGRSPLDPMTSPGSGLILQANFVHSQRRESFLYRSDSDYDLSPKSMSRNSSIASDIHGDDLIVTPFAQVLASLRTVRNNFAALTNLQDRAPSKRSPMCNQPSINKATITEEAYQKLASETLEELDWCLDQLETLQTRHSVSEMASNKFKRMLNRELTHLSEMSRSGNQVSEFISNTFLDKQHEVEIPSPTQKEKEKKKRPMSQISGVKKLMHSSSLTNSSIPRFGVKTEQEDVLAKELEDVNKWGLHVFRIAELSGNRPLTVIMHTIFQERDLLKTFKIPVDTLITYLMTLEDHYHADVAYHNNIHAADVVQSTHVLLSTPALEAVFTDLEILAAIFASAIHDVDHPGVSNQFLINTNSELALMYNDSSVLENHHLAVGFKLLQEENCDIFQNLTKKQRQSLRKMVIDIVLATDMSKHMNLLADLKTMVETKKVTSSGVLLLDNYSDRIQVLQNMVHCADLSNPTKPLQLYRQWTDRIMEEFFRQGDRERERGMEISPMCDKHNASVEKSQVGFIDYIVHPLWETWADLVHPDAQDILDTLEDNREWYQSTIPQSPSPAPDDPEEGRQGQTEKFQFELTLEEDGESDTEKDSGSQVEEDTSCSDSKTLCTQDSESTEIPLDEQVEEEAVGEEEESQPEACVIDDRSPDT

| IC50 (human PDE4D isozyme) [µM] | IC50 (human PDE4B isozyme) [µM] | Structure (SMILES) |
| --- | --- | --- |
| < 5 | < 5 | NC(=O)Nc1ccc(Cc2cc3sc(N)nc3c(-c3cccc(Cl)c3)c2F)cc1 [BA-21, {4-[2-amino-4-(3-chloro-phenyl)-5-fluoro-benzothiazol-6-ylmethyl]-phenyl}-urea] |
| < 5 | < 5 | Nc1nc2c(-c3cccc(C(F)(F)F)c3)cc(Cc3ccc(F)cc3)cc2s1 [BA-07, 6-(4-Fluoro-benzyl)-4-(3-trifluoromethyl-phenyl)-benzothiazol-2-ylamine] |
| < 5 | 5 to 20 | CC(=O)N1CCN(Cc2cc3scnc3c(-c3cccc(Cl)c3)c2F)CC1 [BA-44, 1-{4-[4-(3-Chloro-phenyl)-5-fluoro-benzothiazol-6-ylmethyl]-piperazin-1-yl}-ethanone] |
| < 5 | < 5 | NC(=O)N1CCN(Cc2cc3scnc3c(-c3cccc(Cl)c3)c2F)CC1 [BA-31, 4-[4-(3-Chloro-phenyl)-5-fluoro-benzothiazol-6-ylmethyl]-piperazine-1-carboxylic acid amide] |
| < 5 | 5 to 20 | CS(=O)(=O)Nc1ccc(Cc2cc3sc(N)nc3c(-c3cccc(Cl)c3)c2F)cc1 [BA-19, N-{4-[2-amino-4-(3-chloro-phenyl)-5-fluoro-benzothiazol-6-ylmethyl]-phenyl}-methanesulfonamide] |
| < 5 | < 5 | CCNC(=O)N1CCN(Cc2cc3scnc3c(-c3cccc(Cl)c3)c2F)C(=O)C1 [BA-72, 4-[4-(3-Chloro-phenyl)-5-fluoro-benzothiazol-6-ylmethyl]-3-oxo-piperazine-1-carboxylic acid ethylamide] |
| < 5 | < 5 | Fc1c(CN2CCOCC2)cc2scnc2c1-c1cccc(Cl)c1 [BA-43, 4-(3-Chloro-phenyl)-5-fluoro-6-morpholin-4-ylmethyl-benzothiazole] |
| < 5 | < 5 | CCNC(=O)Nc1ccc(Cc2cc3scnc3c(-c3cccc(Cl)c3)c2F)cc1 [BA-30, 1-{4-[4-(3-chloro-phenyl)-5-fluoro-benzothiazol-6-ylmethyl]-phenyl}-3-ethyl-urea] |
| < 5 | < 5 | CN(C)CC(=O)Nc1ccc(Cc2cc3scnc3c(-c3cccc(Cl)c3)c2F)cn1 [BA-64, N-{5-[4-(3-chloro-phenyl)-5-fluoro-benzothiazol-6-ylmethyl]-pyridin-2-yl}-2-dimethylamino-acetamide] |
| < 5 | 20 to 40 | Clc1cccc(-c2cc(Cc3ccc(N4CCCC4)nc3)cc3scnc23)c1 [BA-59, 4-(3-chloro-phenyl)-6-(6-pyrrolidin-1-yl-pyridin-3-ylmethyl)-benzothiazole] |
| < 5 | 5 to 20 | Fc1c(CN2CCNCC2)cc2scnc2c1-c1cccc(Cl)c1 [BA-48, 4-(3-Chloro-phenyl)-5-fluoro-6-piperazin-1-ylmethyl-benzothiazole] |
| < 5 | 5 to 20 | NC(=O)NC1CCN(Cc2cc3scnc3c(-c3cccc(Cl)c3)c2F)CC1 [BA-46, [1-[4-(3-Chloro-phenyl)-5-fluoro-benzothiazol-6-ylmethyl]-piperidin-4-yl]-urea] |
| < 5 | < 5 | CC(=O)c1cccc(-c2cc(Cn3cccn3)cc3sc(N)nc23)c1 [BA-12, 1-[3-(2-Amino-6-pyrazol-1-ylmethyl-benzothiazol-4-yl)-phenyl]-ethanone] |
| < 5 | < 5 | Nc1ccc(Cc2cc3sc(N)nc3c(-c3cccc(Cl)c3)c2F)cc1 [BA-16, 6-(4-amino-benzyl)-4-(3-chloro-phenyl)-5-fluoro-benzothiazol-2-ylamine] |
| < 5 | < 5 | Nc1nc2c(-c3cccc(Br)c3)cc(Cc3ccc(F)cc3)cc2s1 [BA-13, 4-(3-bromophenyl)-6-(4-fluorobenzyl)-1,3-benzothiazol-2-amine] |
| < 5 | < 5 | NC(=O)[C@@H]1CCN1c1ccc(Cc2cc3scnc3c(-c3cccc(Cl)c3)c2F)cn1 [BA-74, (S)-1-{5-[4-(3-chloro-phenyl)-5-fluoro-benzothiazol-6-ylmethyl]-pyridin-2-yl}-azetidine-2-carboxylic acid amide] |
| < 5 |  | CN1CCN(Cc2cc3scnc3c(-c3cccc(Cl)c3)c2F)CC1 [BA-50, 4-(3-Chloro-phenyl)-5-fluoro-6-(4-methyl-piperazin-1-ylmethyl)-benzothiazole] |

| IC50 (human PDE4D isozyme) [µM] | IC50 (human PDE4B isozyme) [µM] | Structure (SMILES) |
| --- | --- | --- |
| < 5 | < 5 | Nc1nc2c(-c3ccc4c(c3)OCO4)cc(C(O)c3ccc(F)cc3)cc2s1 (centres unmarked) [BA-05, (2-Amino-4-benzo[1,3]dioxol-5-yl-benzothiazol-6-yl)-(4-fluoro-phenyl)-methanol] |
| < 5 | 5 to 20 | CS(=O)(=O)Nc1ccc(Cc2cc(-c3cccc(Cl)c3)c3nc(N)sc3c2)cc1 [BA-18, N-{4-[2-Amino-4-(3-chloro-phenyl)-benzothiazol-6-ylmethyl]-phenyl}-methanesulfonamide] |
| < 5 | < 5 | Cc1nc2c(-c3cccc(Cl)c3)cc(Cc3ccc(NC(N)=O)cc3)cc2o1 [BA-24, N-(4-{[4-(3-chlorophenyl)-2-methyl-1,3-benzoxazol-6-yl]methyl}phenyl)urea] |
| < 5 | < 5 | Cc1nc2c(-c3cccc(Cl)c3)cc(Cc3ccc(N)cc3)cc2o1 [BA-22, 4-{[4-(3-chlorophenyl)-2-methyl-1,3-benzoxazol-6-yl]methyl}aniline] |
| < 5 | < 5 | CCNC(=O)Nc1ccc(Cc2cc(-c3cccc(Cl)c3)c3nc(C)sc3c2)cn1 [BA-67, 1-{5-[4-(3-chloro-phenyl)-2-methyl-benzothiazol-6-ylmethyl]-pyridin-2-yl}-3-ethyl-urea] |
| < 5 | 20 to 40 | CCNC(=O)N1CCN(Cc2cc3scnc3c(-c3cccc(Cl)c3)c2F)CC1 [BA-52, 4-[4-(3-chloro-phenyl)-5-fluoro-benzothiazol-6-ylmethyl]-piperazine-1-carboxylic acid ethylamide] |
| < 5 | < 5 | O=C1CNCCN1Cc1cc2scnc2c(-c2cccc(Cl)c2)c1F [BA-73, 1-[4-(3-Chloro-phenyl)-5-fluoro-benzothiazol-6-ylmethyl]-piperazin-2-one] |
| < 5 | < 5 | Nc1ccc(Cc2cc3scnc3c(-c3cccc(Cl)c3)c2F)cc1 [BA-23, 4-[4-(3-chloro-phenyl)-5-fluoro-benzothiazol-6-ylmethyl]-phenylamine] |
| < 5 | < 5 | CCNC(=O)Nc1ccc(Cc2cc3scnc3c(-c3cccc(C#N)c3)c2F)cn1 [BA-53, 1-{5-[4-(3-cyano-phenyl)-5-fluoro-benzothiazol-6-ylmethyl]-pyridin-2-yl}-3-ethyl-urea] |
| < 5 | < 5 | Nc1ccc(Cc2cc(-c3cccc(Cl)c3)c3ncsc3c2)cc1 [BA-25, 4-[4-(3-Chloro-phenyl)-benzothiazol-6-ylmethyl]-phenylamine] |
| < 5 | < 5 | O=C1CN(Cc2cc3scnc3c(-c3cccc(Cl)c3)c2F)CCN1 [BA-71, 4-[4-(3-Chloro-phenyl)-5-fluoro-benzothiazol-6-ylmethyl]-piperazin-2-one] |
| < 5 | < 5 | CN(C)c1ccc(Cc2cc(-c3cccc(Cl)c3)c3ncsc3c2)cn1 [BA-58, {5-[4-(3-chloro-phenyl)-benzothiazol-6-ylmethyl]-pyridin-2-yl}-dimethyl-amine] |
| < 5 | < 5 | Nc1ccc(Cc2cc(-c3cccc(Cl)c3)c3nc(N)oc3c2)cc1 [BA-32, 6-(4-aminobenzyl)-4-(3-chlorophenyl)-1,3-benzoxazol-2-amine] |
| < 5 | < 5 | CCNC(=O)Nc1ccc(Cc2cc3scnc3c(-c3cccc(Cl)c3)c2F)cn1 [BA-33, 1-[5-[4-(3-chloro-phenyl)-5-fluoro-benzothiazol-6-ylmethyl]-pyridin-2-yl]-3-ethyl-urea] |
| < 5 | < 5 | NC(=O)Nc1ccc(Cc2cc(-c3cccc(Cl)c3)c3ncsc3c2)cc1 [BA-28, {4-[4-(3-Chloro-phenyl)-benzothiazol-6-ylmethyl]-phenyl}-urea] |
| < 5 |  | Cc1nc2c(-c3cccc(Cl)c3)cc(Cc3ccc(N)nc3)cc2s1 [BA-66, 5-[4-(3-chloro-phenyl)-2-methyl-benzothiazol-6-ylmethyl]-pyridin-2-ylamine] |
| < 5 |  | Fc1c(Cc2ccc(N3CCCC3)nc2)cc2scnc2c1-c1cccc(Cl)c1 [BA-57, 4-(3-chloro-phenyl)-5-fluoro-6-(6-pyrrolidin-1-yl-pyridin-3-ylmethyl)-benzothiazole] |
